Our source for the IC50 values is US20180194762A1 (Pharmacyclics LLC, priority 2017, published 2018).

Common to all, as to format: biochemical
The target of experiment [1] is T1, TEC (Homo sapiens, UniProt P42680).
T1 sequence (P42680 1-631): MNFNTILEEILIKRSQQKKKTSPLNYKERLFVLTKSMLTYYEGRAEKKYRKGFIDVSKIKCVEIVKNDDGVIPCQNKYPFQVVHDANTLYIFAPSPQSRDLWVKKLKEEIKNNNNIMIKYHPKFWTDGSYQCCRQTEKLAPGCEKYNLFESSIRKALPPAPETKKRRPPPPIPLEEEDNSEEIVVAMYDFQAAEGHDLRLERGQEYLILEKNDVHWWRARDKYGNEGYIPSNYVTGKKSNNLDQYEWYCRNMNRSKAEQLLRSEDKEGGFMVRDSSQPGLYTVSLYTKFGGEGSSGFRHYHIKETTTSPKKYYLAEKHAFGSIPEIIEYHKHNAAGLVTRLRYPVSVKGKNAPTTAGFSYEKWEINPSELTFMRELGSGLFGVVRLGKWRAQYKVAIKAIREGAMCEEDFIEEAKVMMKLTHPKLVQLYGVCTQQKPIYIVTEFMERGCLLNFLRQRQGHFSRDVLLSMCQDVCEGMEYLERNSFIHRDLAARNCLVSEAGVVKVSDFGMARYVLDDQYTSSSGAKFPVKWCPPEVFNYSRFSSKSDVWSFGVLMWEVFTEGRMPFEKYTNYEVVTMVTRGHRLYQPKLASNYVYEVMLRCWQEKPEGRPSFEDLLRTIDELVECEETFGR
In words: Inhibition of a panel of kinases (in vitro HotSpot kinase assay, 33P-ATP, 1 μM ATP). Particulars: HotSpot kinase assay, 1 μM ATP. The gist of the method:
(§1)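 Degree of kinase inhibition is determined in vitro using isolated enzymes, a matched substrate and radiolabelled ATP (1 μM).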

In experiment [2] the target is T2, Btk (Homo sapiens, UniProt Q06187).
T2 construct: purified from insect cells as a full-length construct containing a N-terminal 6X-His tag; His6 (N); made in house; host or cells: insect cells (Method C)
In words: Btk in vitro inhibitory activity (one of Method A TR-FRET, Method B electrophoretic mobility shift, Method C radiometric filter binding). As to conditions: wild-type Btk; read-out: Btk-WT IC50. The gist of the method: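 Method A: TR-FRET with 0.5 nM Btk at [ATP]=Km, EDTA-quenched, 665/615 nm ratio; Ki(app) converted to IC50. Method B: 1 nM full-length His6 human BTK, 1 μM FAM peptide, pH 7.5, mobility-shift product/sum ratio, 12-point 4-parameter fit. Method C: radiometric filter binding, 8 nM His-tagged BTK, 0.2 mg/mL poly-Glu-Tyr.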
On the technique in general: A gel shift assay detects complexes by their altered migration in electrophoresis.

For experiment [3], the target named is T3, panel of kinases (Homo sapiens, UniProt P51813).
T3 sequence (P51813 1-675): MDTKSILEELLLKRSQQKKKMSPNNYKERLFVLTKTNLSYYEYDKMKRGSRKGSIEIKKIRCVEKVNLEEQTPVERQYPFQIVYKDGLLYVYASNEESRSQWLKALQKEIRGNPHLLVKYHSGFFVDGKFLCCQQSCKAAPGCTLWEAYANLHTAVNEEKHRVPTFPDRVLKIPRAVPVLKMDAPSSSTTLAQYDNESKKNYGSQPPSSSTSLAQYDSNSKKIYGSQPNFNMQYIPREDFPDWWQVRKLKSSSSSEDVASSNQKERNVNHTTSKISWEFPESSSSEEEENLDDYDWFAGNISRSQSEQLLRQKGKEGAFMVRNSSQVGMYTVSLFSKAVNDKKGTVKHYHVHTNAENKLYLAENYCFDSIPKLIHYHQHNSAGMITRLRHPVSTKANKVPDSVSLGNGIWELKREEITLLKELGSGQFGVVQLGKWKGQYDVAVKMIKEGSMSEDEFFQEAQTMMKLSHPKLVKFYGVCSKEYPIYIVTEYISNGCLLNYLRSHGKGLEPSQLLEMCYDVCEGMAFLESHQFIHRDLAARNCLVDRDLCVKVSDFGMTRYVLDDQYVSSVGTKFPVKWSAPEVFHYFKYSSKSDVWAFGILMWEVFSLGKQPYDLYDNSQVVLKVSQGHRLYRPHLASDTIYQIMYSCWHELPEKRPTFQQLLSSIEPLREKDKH
In words: Inhibition of a panel of kinases (in vitro HotSpot kinase assay, 33P-ATP, 1 μM ATP), other kinases. As to conditions: BMX wild-type, read-out: BMX-WT IC50. The gist of the method: as §1

T2 sequence (Q06187 whole entry): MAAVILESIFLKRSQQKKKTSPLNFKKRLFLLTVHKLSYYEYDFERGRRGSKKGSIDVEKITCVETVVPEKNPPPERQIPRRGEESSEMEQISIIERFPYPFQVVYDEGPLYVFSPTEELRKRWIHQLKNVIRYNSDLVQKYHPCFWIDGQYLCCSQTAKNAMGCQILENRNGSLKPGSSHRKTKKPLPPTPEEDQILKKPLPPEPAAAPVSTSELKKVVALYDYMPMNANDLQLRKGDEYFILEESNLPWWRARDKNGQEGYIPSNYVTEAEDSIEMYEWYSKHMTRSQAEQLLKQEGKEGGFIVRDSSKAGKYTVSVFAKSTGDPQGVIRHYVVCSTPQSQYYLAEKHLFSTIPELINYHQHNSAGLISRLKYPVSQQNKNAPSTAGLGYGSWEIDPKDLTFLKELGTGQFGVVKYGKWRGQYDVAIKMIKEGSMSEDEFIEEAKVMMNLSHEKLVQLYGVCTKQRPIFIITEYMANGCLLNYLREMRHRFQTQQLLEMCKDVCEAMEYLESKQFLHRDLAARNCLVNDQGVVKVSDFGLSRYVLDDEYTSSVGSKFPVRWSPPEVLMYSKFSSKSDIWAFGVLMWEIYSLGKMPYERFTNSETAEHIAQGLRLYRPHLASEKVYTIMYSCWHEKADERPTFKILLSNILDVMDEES

In general, IC50 refers to the point on the concentration scale where inhibition reaches its midpoint. Turning to `CC(=O)N[C@@H]1CCN(c2n[nH]c3nccc(-c4ccc(CNC(=O)c5coc(C(C)C)n5)c(F)c4)c23)C1` [Example 360, N-[(4-{3-[(3R)-3-acetamidopyrrolidin-1-yl]-1H-pyrazolo[3,4-b]pyridin-4-yl}-2-fluorophenyl)methyl]-2-(propan-2-yl)-1,3-oxazole-4-carboxamide], the IC50 in experiment [1] came out at 3210 nM; in experiment [2] it was 14.3 nM; in experiment [3], 3430 nM.

As for `C=CC(=O)N1CC[C@@H](Nc2n[nH]c3nccc(-c4ccc(CNC(=O)c5ccc6scnc6c5)c(F)c4)c23)C1` [Example 362, N-{[2-fluoro-4-(3-{[(3R)-1-(prop-2-enoyl)pyrrolidin-3-yl]amino}-1H-pyrazolo[3,4-b]pyridin-4-yl)phenyl]methyl}-1,3-benzothiazole-5-carboxamide], the IC50 in experiment [1] was 73.3 nM; in experiment [2], 0.727 nM; in experiment [3], 19 nM.

With `C=CC(=O)NC1CCN(c2n[nH]c3nccc(-c4ccc([C@@H](C)NC(=O)c5cc(C(C)(C)O)on5)cc4)c23)CC1` [Example 364, 5-(2-hydroxypropan-2-yl)-N-{(1R)-1-[4-(3-{4-[(prop-2-enoyl)amino]piperidin-1-yl}-1H-pyrazolo[3,4-b]pyridin-4-yl)phenyl]ethyl}-1,2-oxazole-3-carboxamide], the IC50 was 9390 nM in experiment [1], 54.7 nM in experiment [2] and 5770 nM in experiment [3].

As to `CC(=O)NC1CCN(c2n[nH]c3nccc(-c4ccc([C@@H](C)NC(=O)c5cc(C(C)(C)O)on5)cc4)c23)CC1` [Example 365, N-[(1R)-1-{4-[3-(4-acetamidopiperidin-1-yl)-1H-pyrazolo[3,4-b]pyridin-4-yl]phenyl}ethyl]-5-(2-hydroxypropan-2-yl)-1,2-oxazole-3-carboxamide], the concentration for half-maximal inhibition (IC50) was 6160 nM in experiment [1], 46.2 nM in experiment [2] and 3040 nM in experiment [3].

As to `N[C@@H]1CCN(c2n[nH]c3nccc(-c4ccc(CNC(=O)c5nc6c(s5)CCCC6)c(F)c4)c23)C1` [Example 366, N-[(4-{3-[(3R)-3-aminopyrrolidin-1-yl]-1H-pyrazolo[3,4-b]pyridin-4-yl}-2-fluorophenyl)methyl]-4,5,6,7-tetrahydro-1,3-benzothiazole-2-carboxamide], the IC50 in experiment [1] amounted to 7070 nM; in experiment [2] it was 21.9 nM; in experiment [3], 1320 nM.

`C=CC(=O)N[C@@H]1CCN(c2n[nH]c3nccc(-c4ccc(CNC(=O)c5noc(C(C)C)n5)c(F)c4)c23)C1` [Example 367, N-{[2-fluoro-4-(3-{(3R)-3-[(prop-2-enoyl)amino]pyrrolidin-1-yl}-1H-pyrazolo[3,4-b]pyridin-4-yl)phenyl]methyl}-5-(propan-2-yl)-1,2,4-oxadiazole-3-carboxamide]: the half-inhibitory concentration (IC50) is 47.4 nM in experiment [1], 0.058 nM in experiment [2] and 26.5 nM in experiment [3].

With `CC(=O)N[C@@H]1CCN(c2n[nH]c3nccc(-c4ccc(CNC(=O)c5noc(C(C)C)n5)c(F)c4)c23)C1` [Example 369, N-[(4-{3-[(3R)-3-acetamidopyrrolidin-1-yl]-1H-pyrazolo[3,4-b]pyridin-4-yl}-2-fluorophenyl)methyl]-5-(propan-2-yl)-1,2,4-oxadiazole-3-carboxamide], the IC50 in experiment [1] stood at 1480 nM; in experiment [2], 4.66 nM; in experiment [3], 1140 nM.

`CC(C)c1nc(C(=O)NCc2ccc(-c3ccnc4[nH]nc(N5CC[C@@H](N)C5)c34)cc2F)no1` [Example 370, N-[(4-{3-[(3R)-3-aminopyrrolidin-1-yl]-1H-pyrazolo[3,4-b]pyridin-4-yl}-2-fluorophenyl)methyl]-5-(propan-2-yl)-1,2,4-oxadiazole-3-carboxamide]: the figures for the IC50 in experiment [1], in experiment [2] and in experiment [3] were 3880 nM, 6.98 nM and 1740 nM, respectively.
